Data reported in patent US9353104B2, “Substituted pyridizinone derivatives as PDE10 inhibitors” (priority 2013, dated 2016).

Molecular target: human PDE10A2 (Homo sapiens (Human), UniProt Q9Y233)
Experiment: PDE10 fluorescence polarization (IMAP FP) inhibition assay
Assay type: biochemical
Settings: human PDE10A2 lysate, FAM-labeled cAMP 50 nM, room temperature; read-out: PDE10A Ki
Procedure, shortened: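 Cytoplasmic lysate of AD293 cells transiently expressing human PDE10A2, diluted for ~20% conversion of 50 nM FAM-cAMP, in 10 mM Tris pH 7.2, 10 mM MgCl2, 1 mM DTT, 0.01% Tween-20. Reaction 30 min at room temperature, read by IMAP fluorescence polarization; 10-point 3-fold titrations, 1% DMSO as 0%, reference PDE10 inhibitor at 5,000× Ki as 100%.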

Chain of human PDE10A2 (Q9Y233 267-1055): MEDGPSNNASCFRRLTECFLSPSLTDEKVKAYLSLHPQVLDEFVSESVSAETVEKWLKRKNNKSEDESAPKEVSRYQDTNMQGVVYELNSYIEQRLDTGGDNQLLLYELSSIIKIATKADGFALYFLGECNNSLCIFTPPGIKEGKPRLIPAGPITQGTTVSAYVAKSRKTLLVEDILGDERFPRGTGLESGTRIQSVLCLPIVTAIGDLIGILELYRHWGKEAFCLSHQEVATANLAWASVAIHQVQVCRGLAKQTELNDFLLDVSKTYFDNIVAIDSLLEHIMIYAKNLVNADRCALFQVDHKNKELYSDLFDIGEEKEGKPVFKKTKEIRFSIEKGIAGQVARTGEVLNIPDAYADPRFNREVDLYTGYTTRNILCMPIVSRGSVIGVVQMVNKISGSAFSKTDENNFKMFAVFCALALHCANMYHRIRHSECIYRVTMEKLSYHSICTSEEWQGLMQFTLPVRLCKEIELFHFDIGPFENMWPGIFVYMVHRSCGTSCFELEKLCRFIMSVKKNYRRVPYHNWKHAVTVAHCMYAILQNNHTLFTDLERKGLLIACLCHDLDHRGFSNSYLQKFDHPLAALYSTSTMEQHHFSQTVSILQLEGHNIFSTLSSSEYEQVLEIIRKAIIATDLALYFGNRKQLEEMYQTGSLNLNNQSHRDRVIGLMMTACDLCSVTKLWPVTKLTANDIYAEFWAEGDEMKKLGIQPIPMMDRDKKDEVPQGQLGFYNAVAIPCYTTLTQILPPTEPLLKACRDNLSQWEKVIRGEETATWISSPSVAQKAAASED

Compound | Ki [nM]
CCc1cc(CNc2cc(OC[C@H]3C[C@@H]3c3ccc(OC)cn3)nn(C)c2=O)n(C)n1 [Example 137, 4-((3-ethyl-1-methyl-1H-pyrazol-5-yl)methylamino)-6-(((1S,2S)-2-(5-methoxypyridin-2-yl)cyclopropyl)methoxy)-2-methylpyridazin-3(2H)-one] | 0.058
Cc1ncc(CNc2cc(OC[C@@H]3C[C@H]3c3nn(C)c4ccccc34)nn(C)c2=O)s1 [Example 110, 2-methyl-6-(((1R,2R)-2-(1-methyl-1H-indazol-3-yl)cyclopropyl)methoxy)-4-((2-methylthiazol-5-yl)methylamino)pyridazin-3(2H)-one] | 0.077
Cc1nnc(CNc2cc(OC[C@H]3C[C@@H]3c3ccc(F)cn3)nn(C)c2=O)s1 [Example 7, 6-(((1S,2S)-2-(5-fluoropyridin-2-yl)cyclo-propyl)methoxy)-2-methyl-4-((5-methyl-1,3,4-thiadiazol-2-yl)methyl-amino)pyridazin-3(2H)one] | 0.535
Cc1ccc([C@H]2C[C@@H]2COc2cc(NCc3nnc(C)s3)c(=O)n(C)n2)nc1 [Example 1, 2-methyl-4-((5-methyl-1,3,4-thiadiazol-2-yl)methylamino)-6-(((1S,2S)-2-(5-methylpyridin-2-yl)cyclopropyl)methoxy)pyridazin-3(2H)-one] | 0.013
Cc1nnc(CNc2cc(OC[C@H]3C[C@@H]3c3ccc(OC(F)F)cn3)nn(C)c2=O)s1 [Example 5, 6-(((1S,2S)-2-(5-(difluoromethoxy)pyridin-2-yl)cyclopropyl)methoxy-)-2-methyl-4-((5-methyl-1,3,4-thiadiazol-2-yl)-methylamino)pyridazin-3(2H)-one] | 0.157
COc1ccc([C@H]2C[C@@H]2COc2cc(NCc3cccnc3)c(=O)n(C)n2)nc1 [Example 68, 6-(((1S,25)-2-(5-methoxy-pyridin-2-yl)cyclopropyl-)-methoxy)-2-methyl-4-((pyridin-3-ylmethyl)-amino)pyridazin-3(2H)one] | 11.6
Cc1ccc([C@H]2C[C@@H]2COc2cc(NCc3c(C)nn(C)c3Cl)c(=O)n(C)n2)nc1 [Example 38, 4-((5-chloro-1,3-dimethyl-1H-pyrazol-4-yl)methyl-amino)-2-methyl-6-(((1S,- 2S)-2-(5-methyl-pyridin-2-yl)cyclopropyl)methoxy)-pyridazin-3(2H)-one] | 1.53
C#CCN(Cc1ccc(OC)cc1)c1cc(OC[C@H]2C[C@@H]2c2ccc(OC)cn2)nn(C)c1=O [Example 145, 4-((4-methoxybenzyl)(prop-2-ynyl)amino)-6-(((1S,2S)-2-(5-methoxypyridin-2-yl)cyclopropyl)methoxy)-2-methylpyridazin-3(2H)-one] | 7.9
Cc1ccc([C@H]2C[C@@H]2COc2cc(NCc3c(Cl)c(C)nn3C)c(=O)n(C)n2)nc1 [Example 35, 4-((4-chloro-1,3-dimethyl-1H-pyrazol-5-yl)methylamino)-2-methyl-6-(((1S,2S)-2-(5-methylpyridin-2-yl)cyclopropyl)methoxy)-pyridazin-3(2H)-one] | 0.476
Cn1cc(CNc2cc(OC[C@H]3C[C@@H]3c3nn(C)c4ccccc34)nn(C)c2=O)cn1 [Example 111, 2-methyl-6-(((1S,2S)-2-(1-methyl-1H-indazol-3-yl)cyclopropyl)methoxy)-4-((1-methyl-1H-pyrazol-4-yl)methylamino)-pyridazin-3(2H)-one] | 1.9
Cc1cccc([C@H]2C[C@@H]2COc2cc(NCc3cccnc3)c(=O)n(C)n2)n1 [Example 120, 2-methyl-6-(((1S,2S)-2-(6-methylpyridin-2-yl)cyclo-propyl)methoxy)-4-(pyridin-3-ylmethylamino-)pyridazin-3(2H)-one] | 1.3

Continued by falling Ki, values first:

Ki [nM] | Compound
55.1 | COc1ccc([C@H]2C[C@@H]2COc2cc(NCc3nc(C)ccc3F)c(=O)n(C)n2)nc1 [Example 70, 4-(((3-fluoro-6-methyl-pyridin-2-yl)methyl)-amino)-6-(((1S,2S)-2-(5-methoxypyridin-2-yl)-cyclopropyl)methoxy)-2-methylpyridazin-3(2H)one]
5.7 | COc1ccc(Cn2cc(CNc3cc(OC[C@H]4C[C@@H]4c4ccc(OC)cn4)nn(C)c3=O)c(C)n2)cc1 [Example 77, 4-((1-(4-methoxybenzyl)-3-methyl-1H-pyrazol-4-yl)methylamino)-6-(((1S,2S)-2-(5-methoxy-pyridin-2-yl)cyclopropyl)-methoxy)-2-methyl-pyridazin-3(2H)-one]
3.6 | Cc1cc(CNc2cc(OC[C@H]3C[C@@H]3c3ccn(C)n3)nn(C)c2=O)nn1C [Example 129, 4-((1,5-dimethyl-1H-pyrazol-3-yl)methylamino)-2-methyl-6-(((1S,2S)-2-(1-methyl-1H-pyrazol-3-yl)cyclopropyl)methoxy) pyridazin-3(2H)-one]
0.706 | COc1ccc([C@H]2C[C@@H]2COc2cc(NCc3ccccn3)c(=O)n(C)n2)nc1 [Example 134, 6-(((1S,2S)-2-(5-methoxy-pyridin-2-yl)-cyclopropyl-)methoxy)-2-methyl-4-(pyridin-2-yl-methyl-amino)pyridazin-3(2H)one]
0.502 | COc1ccc(CNc2cc(OC[C@H]3C[C@@H]3c3ccn(C)n3)nn(C)c2=O)cc1 [Example 17, 4-(4-methoxybenzylamino)-2-methyl-6-(((1S,2S)-2-(1-methyl-1H-pyrazol-3-yl)cyclopropyl)methoxy)-pyridazin-3(2H)-one]
0.38 | COc1ccc([C@H]2C[C@@H]2COc2cc(NCc3c(C)noc3C)c(=O)n(C)n2)nc1 [Example 59, 4-(((3,5-dimethylisoxazol-4-yl)methyl)amino)-6-(((1S,2S)-2-(5-methoxy-pyridin-2-yl)cyclopropyl-)-methoxy)-2-methyl-pyridazin-3(2H)-one]
0.34 | Cn1cc(CNc2cc(OC[C@H]3C[C@@H]3c3ccc(Cl)cn3)nn(C)c2=O)cn1 [Example 27, 6-(((1S,2S)-2-(5-chloro-pyridin-2-yl)cyclopropyl)-methoxy)-2-methyl-4-((1-methyl-1H-pyrazol-4-yl)methylamino)pyridazin-3(2H)-one]
0.276 | COc1ccc([C@H]2C[C@@H]2COc2cc(NCc3cc(C)ccn3)c(=O)n(C)n2)nc1 [Example 105, 6-(((1S,2S)-2-(5-methoxy-pyridin-2-yl)cyclopropyl-)methoxy)-2-methyl-4-(((-4-methylpyridin-2-yl)-methyl)amino)pyridazin-3(2H)-one]
0.176 | Cc1cnc(CNc2cc(OC[C@H]3C[C@@H]3c3ccc(F)cn3)nn(C)c2=O)s1 [Example 32, 6-(((1S,2S)-2-(5-fluoropyridin-2-yl)cyclopropyl)methoxy)-2-methyl-4-((5-methylthiazol-2-yl)methylamino)pyridazin-3(2H)-one]
0.099 | Cc1cc(CNc2cc(OC[C@H]3C[C@@H]3c3ccc(F)cn3)nn(C)c2=O)n(C)n1 [Example 18]
0.049 | COc1ccc([C@H]2C[C@@H]2COc2cc(NCc3cncc(C)c3)c(=O)n(C)n2)nc1 [Example 67, 6-(((1S,2S)-2-(5-methoxypyridin-2-yl)cyclopropyl)methoxy)-2-methyl-4-(((5-methylpyridin-3-yl)methyl)amino)pyridazin-3(2H)-one]
0.048 | COc1ccc([C@H]2C[C@@H]2COc2cc(NCc3c[nH]nn3)c(=O)n(C)n2)nc1 [Example 146, 4-((1H-1,2,3-triazol-4-yl)methylamino)-6-(((1S,2S)-2-(5-methoxypyridin-2-yl)cyclopropyl)methoxy)-2-methylpyridazin-3(2H)-one]
0.034 | Cc1ccc(CNc2cc(OC[C@H]3C[C@@H]3c3ccc(F)cn3)nn(C)c2=O)c(C)n1 [Example 53, 4-(((2,6-dimethylpyridin-3-yl)methyl)amino)-6-(((1S,2S)-2-(5-fluoro-pyridin-2-yl)cyclopropyl-)-methoxy)-2-methyl-pyridazin-3(2H)-one]
0.032 | CCn1nc(OC[C@H]2C[C@@H]2c2ccc(OC)cn2)cc(NCc2nnc(C)s2)c1=O [Example 144, 2-ethyl-6-(((1S,2S)-2-(5-methoxypyridin-2-yl)cyclopropyl)methoxy)-4-((5-methyl-1,3,4-thiadiazol-2-yl)methylamino)pyridazin-3(2H)-one]
0.007 | Cc1ccc([C@H]2C[C@@H]2COc2cc(NCc3ncc(C)s3)c(=O)n(C)n2)nc1 [Example 31, 2-methyl-6-(((1S,2S)-2-(5-methylpyridin-2-yl)cyclopropyl)methoxy)-4-((5-methylthiazol-2-yl)methylamino)pyridazin-3(2H)-one]
0.002 | COc1ccc([C@H]2C[C@@H]2COc2cc(NCc3cc(C)nn3C)c(=O)n(C)n2)nc1 [Example 132, 4-((1,3-dimethyl-1H-pyrazol-5-yl)methyl-amino)-6-(((1S,2S)-2-(5-methoxypyridin-2-yl)-cyclopropyl)methoxy)-2-methylpyridazin-3(2H)one]
